A value given as a limit tells only on which side of the number the result lay.

As a reminder, the IC50 is the concentration needed to halve the response being measured.

The subject of experiment [1] is phosphorylation of ERK, KRAS G12D in AGS cells. The experiment can be described thus: pERK inhibition assay. The note with it: Homo sapiens, AGS, 4 h. It is filed as cell-based. The method, boiled down:
(§1)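 Cells in RPMI-1640 with 10% FBS were plated overnight (30,000/well H358, 20,000 AGS, 30,000 SW620) and treated 4 h with compounds at 0.5% DMSO. After formaldehyde fixation and methanol permeabilization, pERK was detected by in-cell ELISA with HRP secondary and TMB (OD450); IC50 from 4-parameter fit.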

In experiment [2] the test system is phosphorylation of ERK, KRAS G12V in SW620. The experiment in a line: pERK inhibition assay. It is filed as cell-based. Conditions: Homo sapiens, SW-620, 4 h, SW620 cells. The method, boiled down:
as §1

The test system of experiment [3] is phosphorylation of ERK, KRAS G12C in NCI-H358 cells. The experiment can be described thus: pERK inhibition assay. The note with it: Homo sapiens, NCI-H358, 4 h. It is filed as cell-based. The method, boiled down: as §1
The target of the next experiment is KRAS G12C-BRAF complex (Homo sapiens (Human), UniProt P01116+P62937, G12C). The experiment in a line: KRAS-BRAF with CYPA (500 nM) interaction assay (TR-FRET, Example 136). It is filed as biochemical. Conditions: KRAS G12C-BRAF disruption. For orientation: TR-FRET usually uses a lanthanide donor and a delayed reading to cut background.
Experiment [4] relates to NCI-H358 cells (KRAS G12C). The experiment in a line: Cell viability assay (Cell Counting Kit-8, 3-day). It is filed as cell-based, human. Conditions: Homo sapiens, NCI-H358, 72 h, NCI-H358, 72 hrs incubation. The method, boiled down:
(§2)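 72-hr compound treatment, 0.5% DMSO final; NCI-H358 seeded 5,000 cells/well, AGS and SW620 2,000 cells/well. Endpoint: CCK-8, 2-hr development, OD450 minus OD650.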
A general note: Tetrazolium dyes change colour on reduction, which living cells bring about.

Another experiment relates to SW620 cells (KRAS G12V). The experiment in a line: Cell viability assay (Cell Counting Kit-8, 3-day). Conditions: Homo sapiens, SW-620; SW620, 72 hrs incubation. It is filed as cell-based, human. The method, boiled down: as §2
The subject of another experiment is AGS cells (KRAS G12D). The experiment can be described thus: Cell viability assay (Cell Counting Kit-8, 3-day). It is filed as cell-based, human. Conditions: Homo sapiens, 72 h, 72 hrs incubation. The method, boiled down:
as §2

KRAS G12C-BRAF complex, sequence (P01116-2 other isoform, or with tags, fused parts or gaps G12C): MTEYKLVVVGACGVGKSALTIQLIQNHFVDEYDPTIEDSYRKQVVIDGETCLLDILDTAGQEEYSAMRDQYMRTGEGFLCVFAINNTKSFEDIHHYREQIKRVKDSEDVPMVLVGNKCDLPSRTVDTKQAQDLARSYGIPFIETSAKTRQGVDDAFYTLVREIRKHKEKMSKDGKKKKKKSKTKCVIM
KRAS G12C-BRAF complex, sequence (P62937 whole entry): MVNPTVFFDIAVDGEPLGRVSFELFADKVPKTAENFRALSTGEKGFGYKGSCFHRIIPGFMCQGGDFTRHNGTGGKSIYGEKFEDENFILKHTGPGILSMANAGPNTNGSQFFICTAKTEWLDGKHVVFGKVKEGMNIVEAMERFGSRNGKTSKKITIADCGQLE

For the molecule `CO[C@@H](C)c1ncc(N2CCN(C)CC2)cc1-c1c2c3cc(cc4c3n1CCC4)-c1csc(n1)C[C@H](NC(=O)[C@H]1C[C@@H]1c1cccnn1)C(=O)N1CCC[C@H](N1)C(=O)OCC(C)(C)C2` (atropisomer, axis not shown; (M)) [Example 63, (1S,2S)-N-[(7S,13S)-(20M)-20-[2-[(1S)-1-methoxyethyl]-5-(4-methylpiperazin-1-yl)-3-pyridyl]-17,17-dimethyl-8,14-dioxo-15-oxa-4-thia-9,21,30,31-tetrazahexacyclo[23.3.1.1^2,5.1^9,13.0^19,27.0^21,26]hentriaconta-1 (28),2,5 (31), 19,25 (29),26-hexaen-7-yl]-2-pyridazin-3-yl-cyclopropanecarboxamide], the IC50 was 18.3 nM in experiment [1]; 3 nM in experiment [2]; 5.1 nM in experiment [3]; 34 nM on KRAS G12C-BRAF complex; 10.6 nM in experiment [4]; 4.2 nM in the experiment on SW620 cells (KRAS G12V). The same molecule came in with an IC50 in the experiment on AGS cells (KRAS G12D) of 78 nM.

For the molecule `CO[C@@H](C)c1ncc(N2CCN(C)CC2)cc1-c1c2c3cc(cc4c3n1CCC4)-c1csc(n1)C[C@H](NC(=O)[C@@H]1C[C@H]1c1cccnc1C)C(=O)N1CCC[C@H](N1)C(=O)OCC(C)(C)C2` (atropisomer, axis not shown; (M)) [Example 116, (1R,2R)-N-[(7S,13S)-(20M)-20-[2-[(1S)-1-methoxyethyl]-5-(4-methylpiperazin-1-yl)-3-pyridyl]-17,17-dimethyl-8,14-dioxo-15-oxa-4-thia-9,21,30,31-tetrazahexacyclo[23.3.1.1^2,5.1^9,13.0^19,27.0^21,26]hentriaconta-1 (28),2,5 (31), 19,25 (29),26-hexaen-7-yl]-2-(2-methyl-3-pyridyl)cyclopropanecarboxamide], the IC50 was 4.6 nM in experiment [1]; 0.7 nM in experiment [2]; 0.8 nM in experiment [3]; 20.6 nM on KRAS G12C-BRAF complex; 1.4 nM in experiment [4]; 0.5 nM in the experiment with SW620 cells (KRAS G12V). This molecule had an IC50 in the experiment on AGS cells (KRAS G12D) of 3.5 nM.

For `CO[C@@H](C)c1ncc(N2CCN(CC(F)(F)F)CC2)cc1-c1c2c3cc(cc4c3n1CCC4)-c1csc(n1)C[C@H](NC(=O)[C@H]1C[C@@H]1c1cccnc1)C(=O)N1CCC[C@H](N1)C(=O)OCC(C)(C)C2` (atropisomer, axis not shown; (M)) [Example 90, (1S,2S)-N-[(7S,13S)-(20M)-20-[2-[(1S)-1-methoxyethyl]-5-[4-(2,2,2-trifluoroethyl)piperazin-1-yl]-3-pyridyl]-17,17-dimethyl-8,14-dioxo-15-oxa-4-thia-9,21,30,31-tetrazahexacyclo[23.3.1.1^2,5.1^9,13.0^19,27.0^21,26]hentriaconta-1 (28),2,5 (31), 19,25 (29),26-hexaen-7-yl]-2-(3-pyridyl)cyclopropanecarboxamide], the half-inhibitory concentration (IC50) in experiment [1] was 9.4 nM; in experiment [2], 0.6 nM; in experiment [3], 1.7 nM; against KRAS G12C-BRAF complex, 6.4 nM; in experiment [4], 3.3 nM; with SW620 cells (KRAS G12V) it was 0.8 nM. Besides, half-maximal inhibition in the experiment on AGS cells (KRAS G12D) (IC50) was put at 16.8 nM.

As to `CO[C@@H](C)c1ncc(N2CCN(C)CC2)cc1-c1c2c3cc(cc4c3n1CCC4)-c1csc(n1)C[C@H](NC(=O)[C@@H]1[C@@H]3COC[C@@H]31)C(=O)N1CCC[C@H](N1)C(=O)OCC(C)(C)C2` (atropisomer, axis not shown; (M)) [Example 42, (1R,5S,6s)-N-[(7S,13S)-(20M)-20-[2-[(1S)-1-methoxyethyl]-5-(4-methylpiperazin-1-yl)-3-pyridyl]-17,17-dimethyl-8,14-dioxo-15-oxa-4-thia-9,21,30,31-tetrazahexacyclo[23.3.1.1^2,5.1^9,13.0^19,27.0^21,26]hentriaconta-1 (28),2,5 (31), 19,25 (29),26-hexaen-7-yl]-3-oxabicyclo[3.1.0]hexane-6-carboxamide], the IC50 worked out at 8.1 nM in experiment [1]; 1.4 nM in experiment [2]; 0.9 nM in experiment [3]; 20.5 nM on KRAS G12C-BRAF complex; 5.4 nM in experiment [4]; 1.3 nM with SW620 cells (KRAS G12V). Further, the IC50 in the experiment with AGS cells (KRAS G12D) was found to be 22.4 nM.

As for `CO[C@@H](C)c1ncc(N2CCN(C)CC2)cc1-c1c2c3cc(cc4c3n1CC(F)(F)C4)-c1csc(n1)C[C@H](NC(=O)[C@H]1[C@H](C)[C@@H]1C)C(=O)N1CCC[C@H](N1)C(=O)OCC(C)(C)C2` (atropisomer, axis not shown; (M)) [Example 83], the IC50 in experiment [1] is 6 nM; in experiment [2] it was 0.5 nM; in experiment [3] it was 0.9 nM; at KRAS G12C-BRAF complex, 10.3 nM; in experiment [4] it was 3.1 nM; with SW620 cells (KRAS G12V), 0.5 nM. Further, half-maximal inhibition in the experiment with AGS cells (KRAS G12D) (IC50) required 9.2 nM.

`CO[C@@H](C)c1ncc(N2CCOCC2)cc1-c1c2c3cc(cc4c3n1CCO4)-c1csc(n1)C[C@H](NC(=O)[C@H]1C[C@@H]1C(F)F)C(=O)N1CCC[C@H](N1)C(=O)OCC(C)(C)C2` (atropisomer, axis not shown; (M)) [Example 9, (1S,2S)-2-(difluoromethyl)-N-[(7S,13S)-(20M)-20-[2-[(1S)-1-methoxyethyl]-5-morpholino-3-pyridyl]-17,17-dimethyl-8,14-dioxo-15,24-dioxa-4-thia-9,21,30,31-tetrazahexacyclo[23.3.1.1^2,5.1^9,13.0^19,27.0^21,26]hentriaconta-1 (28),2,5 (31), 19,25 (29),26-hexaen-7-yl]cyclopropanecarboxamide]: the IC50 was 1.8 nM in experiment [1]; 0.8 nM in experiment [2]; 2.3 nM in experiment [3]; 21.1 nM against KRAS G12C-BRAF complex; 2.8 nM in experiment [4]; less than 0.6 nM with SW620 cells (KRAS G12V). In the experiment with AGS cells (KRAS G12D), this molecule yielded an IC50 of 7.6 nM.

Regarding `CO[C@@H](C)c1ncc(N2CCN(C)CC2)cc1-c1c2c3cc(cc4c3n1CCO4)-c1csc(n1)C[C@H](NC(=O)[C@@H]1[C@@H]3COC[C@@H]31)C(=O)N1CCC[C@H](N1)C(=O)OCC(C)(C)C2` (atropisomer, axis not shown; (M)) [Example 52, (1R,5S,6s)-N-[(7S,13S)-(20M)-20-[2-[(1S)-1-methoxyethyl]-5-(4-methylpiperazin-1-yl)-3-pyridyl]-17,17-dimethyl-8,14-dioxo-15,24-dioxa-4-thia-9,21,30,31-tetrazahexacyclo[23.3.1.1^2,5.1^9,13.0^19,27.0^21,26]hentriaconta-1 (28),2,5 (31), 19,25 (29),26-hexaen-7-yl]-3-oxabicyclo[3.1.0]hexane-6-carboxamide], the IC50 worked out at 5.1 nM in experiment [1]; 0.7 nM in experiment [2]; 1.4 nM in experiment [3]; 16.1 nM at KRAS G12C-BRAF complex; 7 nM in experiment [4]; 1.1 nM in the experiment with SW620 cells (KRAS G12V). The same molecule gave an IC50 with AGS cells (KRAS G12D) of 12 nM.

Take `CO[C@@H](C)c1ncc(N2CCN(C)CC2)cc1-c1c2c3cc(cc4c3n1CCC4)-c1csc(n1)C[C@H](NC(=O)[C@H]1C[C@@H]1c1ccccn1)C(=O)N1CCC[C@H](N1)C(=O)OCC(C)(C)C2` (atropisomer, axis not shown; (M)) [Example 30, (1S,2S)-N-[(7S,13S)-(20M)-20-[2-[(1S)-1-methoxyethyl]-5-(4-methylpiperazin-1-yl)-3-pyridyl]-17,17-dimethyl-8,14-dioxo-15-oxa-4-thia-9,21,30,31-tetrazahexacyclo[23.3.1.1^2,5.1^9,13.0^19,27.0^21,26]hentriaconta-1 (28),2,5 (31),19,25 (29),26-hexaen-7-yl]-2-(2-pyridyl)cyclopropanecarboxamide]: the IC50 was 7.3 nM in experiment [1]; less than 0.6 nM in experiment [2]; 1.3 nM in experiment [3]; 17.2 nM against KRAS G12C-BRAF complex; 4.9 nM in experiment [4]; 1.3 nM with SW620 cells (KRAS G12V). The half-inhibitory concentration (IC50) in the experiment on AGS cells (KRAS G12D) was found to be 23.4 nM.

With `CO[C@@H](C)c1ncc(N2CCN(CC(F)(F)F)CC2)cc1-c1c2c3cc(cc4c3n1CCO4)-c1csc(n1)C[C@H](NC(=O)[C@H]1C[C@@H]1C)C(=O)N1CCC[C@H](N1)C(=O)OCC(C)(C)C2` (atropisomer, axis not shown; (M)) [Example 5, (1S,2S)-N-[(7S,13S)-(20M)-20-[2-[(1S)-1-methoxyethyl]-5-[4-(2,2,2-trifluoroethyl)piperazin-1-yl]-3-pyridyl]-17,17-dimethyl-8,14-dioxo-15,24-dioxa-4-thia-9,21,30,31-tetrazahexacyclo[23.3.1.1^2,5.1^9,13.0^19,27.0^21,26]hentriaconta-1 (28),2,5 (31), 19,25 (29),26-hexaen-7-yl]-2-methyl-cyclopropanecarboxamide], the IC50 in experiment [1] came to 21.2 nM; in experiment [2], 2.8 nM; in experiment [3], 6.2 nM; against KRAS G12C-BRAF complex, 34.8 nM; in experiment [4], 17.3 nM; in the experiment on SW620 cells (KRAS G12V), 4.6 nM. In the experiment on AGS cells (KRAS G12D), this molecule came in with an IC50 of 70 nM.

Source of the values: patent US20240417410A1, “TRICYCLIC COMPOUNDS FOR THE TREATMENT OF CANCER” (Hoffmann-La Roche Inc., priority 2023, published 2024).
